Read-outs that look alike come from different tables or passages of the source.
Experiments:
Format in all cases: cell-based
HBsAg = test: PHH HBV natural infection assay, HBsAg (alphalisa)
Method: (§1) Detailed procedures regarding primary human hepatocyte (PHH) HBV natural infection assay are described as below. One tube of frozen PHH (10 million cells) is thawed in 37° C. water bath and then transferred to 20 mL of PHH thawing medium (Sigma, InVitroGRO HT Medium, Cat. S03319) with gently mixing. The cells were then centrifuged at […] for 5 min, the supernatant was discarded and the tube was refilled with 25 mL of PHH plating medium (Sigma, InVitroGRO CP Medium, Cat. S03317). The tube was shaken very gently to re-suspend all cells, and then 50 μl of cells were transferred to each well 384-well collagen I coated plate with appropriate liquid handling equipment, e.g. Integra VIAFLO384 or Agilent Bravo. The cells were then cultured for 24 hours in a cell incubator. For HBV infection, after PHH attachment on the culture plate, the plating medium was removed and replenished with PHH culture medium containing HBV virus. The PHH culture medium was prepared with Dulbecco's Modified Eagle Medium (DMEM)/F12 (1:1 in volume ratio) containing 10% fetal bovine serum (Gibco, Cat. 10099141), 5 ng/mL human epidermal growth factor (Gibco, Cat.PHG0311L), 20 ng/mL dexamethasone (Sigma, Cat.D4902-100 mg), 250 ng/mL human recombinant insulin (Gibco, Cat.41400045) and 100 U/mL penicillin. HBV virus at 200 genome equivalent (GE) per cell with 4% PEG8000 (Sigma, Cat.P1458) containing culture medium were added to the PHH culture medium for infection. The cells were then cultured for 24 hours in cell incubator. Then the cell culture supernatant was removed. The HBV-infected PHH were cultured with sandwich culture method with PHH culture medium containing 1% DMSO and 0.25 mg/mL matrix gel for 72 hours. The supernatant was then refreshed with PHH culture medium containing different concentrations of testing compounds for two times with 72-hour interval. At the end of treatment, the supernatant was collected for viral markers measurements, including HBsAg, HBeAg, HBV DNA and cytotoxicity. HBsAg and HBeAg were detected using alphalisa method using their specific antibodies. For HBV DNA detection, HBV DNA Quantitative Fluorescence Diagnostic Kit (Sansure Biotech Inc.) was used following the manufacture's protocol. Cytotoxicity was determined using Cell Counting Kit-8 (CCK8, Dojindo Molecular Technologies, Inc.).
(§2) The compounds of the present invention were tested for their capacity to inhibit HBsAg and HBeAg as described herein.

HBeAg = test: PHH HBV natural infection assay, HBeAg (alphalisa)
Method: as §1, §2

[1] = PHH natural infection assay, cytotoxicity (Cell Counting Kit-8); conditions: human, HBV-infected primary human hepatocytes, CCK8, end of treatment
Method: as §1

[2] = Hepatitis B virus, Hepatocyte, 72 h, read-out: HBsAg IC50, HBV-infected primary human hepatocytes, supernatant, compound medium refreshed two times with 72-hour interval
[3] = Hepatitis B virus, Hepatocyte, 72 h, read-out: HbeAg IC50, HBV-infected primary human hepatocytes, supernatant, compound medium refreshed two times with 72-hour interval

Row | SMILES | IC50 (HBsAg; [2]) | IC50 (HBeAg; [3]) | CC50 at 144 h [1] | IC50 (HBsAg; read-out: HBsAg IC50, HBV-infected primary human hepatocytes, supernatant, compound medium refreshed two times with 72-hour interval) | IC50 (HBeAg; read-out: HbeAg IC50, HBV-infected primary human hepatocytes, supernatant, compound medium refreshed two times with 72-hour interval)
1 | O=C(NC1CC2(C1)CC(c1nc3cc(Cl)ccc3o1)C2)c1ccc(S(=O)(=O)CC2CN(C(=O)OCc3ccccc3)C2)o1 (stereo not drawn) [Example 26, benzyl 3-[[5-[[6-(5-chloro-1,3-benzoxazol-2-yl)spiro[3.3]heptan-2-yl]carbamoyl]-2-furyl]sulfonylmethyl]azetidine-1-carboxylate] | 0.365 µM | 0.329 µM | > 100 µM | – | –
2 | O=C(NC1CC2(C1)CC(c1nc3cc(Cl)ccc3o1)C2)c1ccc(S(=O)(=O)NC(=O)C2CCCCC2)o1 (stereo not drawn) [Example 82, N-[6-(5-chloro-1,3-benzoxazol-2-yl)spiro[3.3]heptan-2-yl]-5-(cyclohexanecarbonylsulfamoyl)furan-2-carboxamide] | 0.461 µM | 0.224 µM | 85.7 µM | – | –
3 | O=C(NC1CC2(C1)CC(c1nc3cc(Cl)ccc3o1)C2)c1ccc(S(=O)(=O)CC2CC2)o1 (stereo not drawn) [Example 20, N-[6-(5-chloro-1,3-benzoxazol-2-yl)spiro[3.3]heptan-2-yl]-5-(cyclopropylmethylsulfonyl)furan-2-carboxamide] | 0.445 µM | 0.18 µM | 89.2 µM | – | –
4 | Cn1cc(C(=O)NC2CC3(C2)CC(c2nc4cc(Cl)ccc4o2)C3)cn1 (stereo not drawn) [Example 13, N-[6-(5-chloro-1,3-benzoxazol-2-yl)spiro[3.3]heptan-2-yl]-1-methyl-pyrazole-4-carboxamide] | 9.81 µM | 6.2 µM | > 100 µM | – | –
5 | O=C(NC1CC2(C1)CC(c1nc3cc(Cl)ccc3o1)C2)c1ccc(S2(=O)=NCCCC2)o1 (stereo not drawn) [Example 62, N-[6-(5-chloro-1,3-benzoxazol-2-yl)spiro[3.3]heptan-2-yl]-5-(1-oxo-1lambda6-thia-2-azacyclohexen-1-yl)furan-2-carboxamide] | 5.01 µM | 4.85 µM | > 100 µM | – | –
6 | NS(=O)(=O)NCc1ccc(C(=O)NC2CC3(C2)CC(c2nc4cc(Cl)ccc4o2)C3)o1 (stereo not drawn) [Example 35, N-[6-(5-chloro-1,3-benzoxazol-2-yl)spiro[3.3]heptan-2-yl]-5-[(sulfamoylamino)methyl]furan-2-carboxamide] | 7.81 µM | 6.53 µM | 98.3 µM | – | –
7 | O=C(NC1CC2(C1)CC(c1nc3ccc(F)cc3o1)C2)c1ccc(C(F)(F)F)o1 (stereo not drawn) [Example 47, N-[6-(6-fluoro-1,3-benzoxazol-2-yl)spiro[3.3]heptan-2-yl]-5-(trifluoromethyl)furan-2-carboxamide] | 9.59 µM | 10.6 µM | > 100 µM | – | –
8 | NS(=O)(=O)c1ccc(C(=O)NC2CC3(C2)CC(c2nc4cc(Cl)ccc4o2)C3)o1 (single isomer, unassigned) [Example 29-a, N-[6-(5-chloro-1,3-benzoxazol-2-yl)spiro[3.3]heptan-2-yl]-5-sulfamoyl-furan-2-carboxamide] | – | – | > 100 µM | 5.12 µM | 2.28 µM
9 | N=S(=O)(Cc1ccc(C(=O)NC2CC3(C2)CC(c2nc4cc(Cl)ccc4o2)C3)o1)C1CC1 (stereo not drawn) [Example 60, N-[6-(5-chloro-1,3-benzoxazol-2-yl)spiro[3.3]heptan-2-yl]-5-[(cyclopropylsulfonimidoyl)methyl]furan-2-carboxamide] | 1.96 µM | 1.91 µM | > 100 µM | – | –
10 | O=C(NC1CC2(C1)CC(c1nc3cc(Cl)ccc3o1)C2)c1ccc(S(=O)(=O)NC(=O)C2CCCC2)o1 (stereo not drawn) [Example 81, N-[6-(5-chloro-1,3-benzoxazol-2-yl)spiro[3.3]heptan-2-yl]-5-(cyclopentanecarbonylsulfamoyl)furan-2-carboxamide] | 1.74 µM | 0.796 µM | 11.3 µM | – | –
11 | O=C(NC1CC2(C1)CC(c1nc3cc(Cl)ccc3o1)C2)c1ccc(SC(F)(F)F)o1 (stereo not drawn) [Example 41, N-[6-(5-chloro-1,3-benzoxazol-2-yl)spiro[3.3]heptan-2-yl]-5-(trifluoromethylsulfanyl)furan-2-carboxamide] | 8.47 µM | 6.62 µM | > 100 µM | – | –
12 | CCCC(=O)NS(=O)(=O)c1ccc(C(=O)N[C@H]2CC3(C2)C[C@H](c2nc4cc(Cl)ccc4o2)C3)o1 (stereo partly drawn) [Example 69] | 0.329 µM | 0.223 µM | > 100 µM | – | –
13 | COc1ccc(C(=O)NC2CC3(C2)CC(c2nc4cc(Cl)ccc4o2)C3)o1 (stereo not drawn) [Example 8, N-[6-(5-chloro-1,3-benzoxazol-2-yl)spiro[3.3]heptan-2-yl]-5-methoxy-furan-2-carboxamide] | 7.96 µM | 5.84 µM | 94.2 µM | – | –
14 | N#Cc1ccc(C(=O)NC2CC3(C2)CC(c2nc4cc(Cl)ccc4o2)C3)o1 (stereo not drawn) [Example 2, N-[6-(5-chloro-1,3-benzoxazol-2-yl)spiro[3.3]heptan-2-yl]-5-cyano-furan-2-carboxamide] | 5.86 µM | 4.06 µM | 61.6 µM | – | –
15 | CC(C)C(=O)NS(=O)(=O)c1ccc(C(=O)N[C@H]2CC3(C2)C[C@H](c2nc4cc(Cl)ccc4o2)C3)o1 (single isomer, unassigned) [Example 70, (Sa)—N-[6-(5-chloro-1,3-benzoxazol-2-yl)spiro[3.3]heptan-2-yl]-5-(2-methylpropanoylsulfamoyl)furan-2-carboxamide, or (Ra)—N-[6-(5-chloro-1,3-benzoxazol-2-yl)spiro[3.3]heptan-2-yl]-5-(2-methylpropanoylsulfamoyl)furan-2-carboxamide] | 0.361 µM | 0.376 µM | > 100 µM | – | –
16 | O=C(NC1CC2(C1)CC(c1nc3cnc(Cl)cc3o1)C2)c1ccc(S(=O)(=O)C2CC2)o1 (stereo not drawn) [Example 51, N-[6-(6-chlorooxazolo[4,5-c]pyridin-2-yl)spiro[3.3]heptan-2-yl]-5-cyclopropylsulfonyl-furan-2-carboxamide] | 1.8 µM | 1.15 µM | > 100 µM | – | –
17 | CCS(=N)(=O)Cc1ccc(C(=O)NC2CC3(C2)CC(c2nc4cc(Cl)ccc4o2)C3)o1 (stereo not drawn) [Example 58, N-[6-(5-chloro-1,3-benzoxazol-2-yl)spiro[3.3]heptan-2-yl]-5-[(ethylsulfonimidoyl)methyl]furan-2-carboxamide] | 8.79 µM | 5.88 µM | > 100 µM | – | –
18 | CS(=O)(=O)c1ccc(C(=O)NC2CC3(C2)CC(c2nc4cc(Cl)cnc4o2)C3)o1 (stereo not drawn) [Example 48, N-[6-(6-chlorooxazolo[5,4-b]pyridin-2-yl)spiro[3.3]heptan-2-yl]-5-methylsulfonyl-furan-2-carboxamide] | 2.4 µM | 1.82 µM | > 100 µM | – | –
19 | O=C(NC1CC2(C1)CC(c1nc3cc(Cl)ccc3o1)C2)c1ccc(S(=O)(=O)NC(=O)C2COC2)o1 (stereo not drawn) [Example 86, N-[6-(5-chloro-1,3-benzoxazol-2-yl)spiro[3.3]heptan-2-yl]-5-(oxetane-3-carbonylsulfamoyl)furan-2-carboxamide] | 2.99 µM | 2.19 µM | > 10 µM | – | –
20 | COCc1ccc(C(=O)NC2CC3(C2)CC(c2nc4cc(Cl)ccc4o2)C3)o1 (stereo not drawn) [Example 9, N-[6-(5-chloro-1,3-benzoxazol-2-yl)spiro[3.3]heptan-2-yl]-5-(methoxymethyl)furan-2-carboxamide] | 1.57 µM | 1.01 µM | 91 µM | – | –
21 | N=S(=O)(c1ccc(C(=O)NC2CC3(C2)CC(c2nc4cc(Cl)ccc4o2)C3)o1)N1CCOCC1 (stereo not drawn) [Example 67, N-[6-(5-chloro-1,3-benzoxazol-2-yl)spiro[3.3]heptan-2-yl]-5-(morpholinosulfonimidoyl)furan-2-carboxamide] | 6.24 µM | 3.65 µM | > 10 µM | – | –
22 | O=C(NC1CC2(C1)CC(c1nc3cc(Cl)ccc3o1)C2)c1ccc(S(=O)(=O)NC(=O)C2CCS(=O)(=O)C2)o1 (stereo not drawn) [Example 84, N-[6-(5-chloro-1,3-benzoxazol-2-yl)spiro[3.3]heptan-2-yl]-5-[(1,1-dioxothiolane-3-carbonyl)sulfamoyl]furan-2-carboxamide] | 9 µM | 6.32 µM | > 10 µM | – | –
23 | N=S(=O)(CC1CC1)c1ccc(C(=O)NC2CC3(C2)CC(c2nc4cc(Cl)ccc4o2)C3)o1 (stereo not drawn) [Example 54, N-[6-(5-chloro-1,3-benzoxazol-2-yl)spiro[3.3]heptan-2-yl]-5-(cyclopropylmethylsulfonimidoyl)furan-2-carboxamide] | 0.47 µM | 0.542 µM | 88.8 µM | – | –

— patent US20230286969A1, “AROMATIC SPIRO RING AMIDE DERIVATIVES FOR THE TREATMENT AND PROPHYLAXIS OF HEPATITIS B VIRUS INFECTION” (Hoffmann-La Roche Inc., priority 2020, published 2023)
